The supplement of paper PMC4862054

Each compound was assayed on Hs578T (assay: normalised response (% of control), CellTox Green; higher = less cell death (100 = DMSO, 0 = benzethonium chloride kill control)). Conditions: incubation time: 72 h.
Outline: (§1)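 After 72 h with compound in 384-well plates, breast cancer cell lines seeded as 20 µl suspension were read for CellTox Green fluorescence at 485/520 nm. CellTiter-Glo luminescence was then read after 10 min at room temperature. Compound was present at 5 concentrations in 10-fold steps over a 10,000-fold range set per compound, and plates were normalised to 0.1 % DMSO (100) and a positive kill control (0). Values are normalised signals, each at a single concentration.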
Work on `C[C@]12CC[C@@H]3c4ccc(O)cc4C[C@@H](CCCCCCCCC[S+]([O-])CCCC(F)(F)C(F)(F)F)[C@H]3[C@@H]1CC[C@@H]2O` (stereo not given in full) [Fulvestrant] (100 nM) yielded a normalised response of 103%.

The compounds below were run on MDA-MB-453 in the same assay as above. Conditions: incubation time: 72 h.
Outline: as §1
In the case of `C[C@]12CC[C@@H]3c4ccc(O)cc4C[C@@H](CCCCCCCCC[S+]([O-])CCCC(F)(F)C(F)(F)F)[C@H]3[C@@H]1CC[C@@H]2O` (stereo not given in full) [Fulvestrant] (100 nM), the normalised response is reported as 87.5%.

Each compound was assayed on MCF-10A in the same assay as above. Conditions: incubation time: 72 h.
Outline: as §1
`C[C@]12CC[C@@H]3c4ccc(O)cc4C[C@@H](CCCCCCCCC[S+]([O-])CCCC(F)(F)C(F)(F)F)[C@H]3[C@@H]1CC[C@@H]2O` (stereo not given in full) [Fulvestrant] (100 nM) showed a normalised response of 105%.

What follows are compounds tested on HCC1599 in the same assay as above. Conditions: incubation time: 72 h.
Outline: as §1
`C[C@]12CC[C@@H]3c4ccc(O)cc4C[C@@H](CCCCCCCCC[S+]([O-])CCCC(F)(F)C(F)(F)F)[C@H]3[C@@H]1CC[C@@H]2O` (stereo not given in full) [Fulvestrant] (100 nM) was tested, and the normalised response was 101%.

Each compound was assayed on CAL-120 in the same assay as above. Conditions: incubation time: 72 h.
Outline: as §1
Work on `C[C@]12CC[C@@H]3c4ccc(O)cc4C[C@@H](CCCCCCCCC[S+]([O-])CCCC(F)(F)C(F)(F)F)[C@H]3[C@@H]1CC[C@@H]2O` (stereo not given in full) [Fulvestrant] (100 nM) yielded a normalised response of 100%.

Each compound was assayed on HCC1937 in the same assay as above. Conditions: incubation time: 72 h.
Outline: as §1
`C[C@]12CC[C@@H]3c4ccc(O)cc4C[C@@H](CCCCCCCCC[S+]([O-])CCCC(F)(F)C(F)(F)F)[C@H]3[C@@H]1CC[C@@H]2O` (stereo not given in full) [Fulvestrant] (100 nM) showed a normalised response of 106%.

Each compound was assayed on MDA-MB-436 in the same assay as above. Conditions: incubation time: 72 h.
Outline: as §1
For `C[C@]12CC[C@@H]3c4ccc(O)cc4C[C@@H](CCCCCCCCC[S+]([O-])CCCC(F)(F)C(F)(F)F)[C@H]3[C@@H]1CC[C@@H]2O` (stereo not given in full) [Fulvestrant] (100 nM), the normalised response was 108%.

The compounds below were run on CAL-148 in the same assay as above. Conditions: incubation time: 72 h.
Outline: as §1
`C[C@]12CC[C@@H]3c4ccc(O)cc4C[C@@H](CCCCCCCCC[S+]([O-])CCCC(F)(F)C(F)(F)F)[C@H]3[C@@H]1CC[C@@H]2O` (stereo not given in full) [Fulvestrant] (100 nM) was tested, and the normalised response was 100%.

Each compound was assayed on DU-4475 in the same assay as above. Conditions: incubation time: 72 h.
Outline: as §1
With `C[C@]12CC[C@@H]3c4ccc(O)cc4C[C@@H](CCCCCCCCC[S+]([O-])CCCC(F)(F)C(F)(F)F)[C@H]3[C@@H]1CC[C@@H]2O` (stereo not given in full) [Fulvestrant] (100 nM) the normalised response was 101%.

The compounds below were run on CAL-51 in the same assay as above. Conditions: incubation time: 72 h.
Outline: as §1
`C[C@]12CC[C@@H]3c4ccc(O)cc4C[C@@H](CCCCCCCCC[S+]([O-])CCCC(F)(F)C(F)(F)F)[C@H]3[C@@H]1CC[C@@H]2O` (stereo not given in full) [Fulvestrant] (100 nM) gave a normalised response of 113%.

Each compound was assayed on HCC1143 in the same assay as above. Conditions: incubation time: 72 h.
Outline: as §1
In the case of `C[C@]12CC[C@@H]3c4ccc(O)cc4C[C@@H](CCCCCCCCC[S+]([O-])CCCC(F)(F)C(F)(F)F)[C@H]3[C@@H]1CC[C@@H]2O` (stereo not given in full) [Fulvestrant] (100 nM), the normalised response is reported as 111%.

The compounds below were run on MFM-223 in the same assay as above. Conditions: incubation time: 72 h.
Outline: as §1
`C[C@]12CC[C@@H]3c4ccc(O)cc4C[C@@H](CCCCCCCCC[S+]([O-])CCCC(F)(F)C(F)(F)F)[C@H]3[C@@H]1CC[C@@H]2O` (stereo not given in full) [Fulvestrant] (100 nM) showed a normalised response of 90.7%.

What follows are compounds tested on MDA-MB-231 in the same assay as above. Conditions: incubation time: 72 h.
Outline: as §1
With `C[C@]12CC[C@@H]3c4ccc(O)cc4C[C@@H](CCCCCCCCC[S+]([O-])CCCC(F)(F)C(F)(F)F)[C@H]3[C@@H]1CC[C@@H]2O` (stereo not given in full) [Fulvestrant] (100 nM) the normalised response was 114%.

Each compound was assayed on BT-549 in the same assay as above. Conditions: incubation time: 72 h.
Outline: as §1
With `C[C@]12CC[C@@H]3c4ccc(O)cc4C[C@@H](CCCCCCCCC[S+]([O-])CCCC(F)(F)C(F)(F)F)[C@H]3[C@@H]1CC[C@@H]2O` (stereo not given in full) [Fulvestrant] (100 nM) the normalised response was 106%.

What follows are compounds tested on CAL-85-1 in the same assay as above. Conditions: incubation time: 72 h.
Outline: as §1
With `C[C@]12CC[C@@H]3c4ccc(O)cc4C[C@@H](CCCCCCCCC[S+]([O-])CCCC(F)(F)C(F)(F)F)[C@H]3[C@@H]1CC[C@@H]2O` (stereo not given in full) [Fulvestrant] (100 nM) the normalised response was 108%.

These compounds were tested on BT-474 in the same assay as above. Conditions: incubation time: 72 h.
Outline: as §1
With `C[C@]12CC[C@@H]3c4ccc(O)cc4C[C@@H](CCCCCCCCC[S+]([O-])CCCC(F)(F)C(F)(F)F)[C@H]3[C@@H]1CC[C@@H]2O` (stereo not given in full) [Fulvestrant] (100 nM) the normalised response was 102%.

The compounds below were run on SK-BR-3 (assay: normalised response (% of control), CellTiter-Glo; higher = more viable cells (100 = DMSO, 0 = benzethonium chloride kill control)). Conditions: incubation time: 72 h.
Outline: as §1
In the case of `C[C@]12CC[C@@H]3c4ccc(O)cc4C[C@@H](CCCCCCCCC[S+]([O-])CCCC(F)(F)C(F)(F)F)[C@H]3[C@@H]1CC[C@@H]2O` (stereo not given in full) [Fulvestrant] (100 nM), the normalised response is reported as 107%. `CS(=O)(=O)c1ccc(C2=C(c3ccccc3)C(=O)OC2)cc1` [Rofecoxib] (1 nM) showed a normalised response of 112%. In the case of `CCCCCCCCCCCCCCCCCCOP(=O)([O-])OC1CC[N+](C)(C)CC1` [Perifosine] (2.5 nM), the normalised response is reported as 92.8%. For `O=C(O)c1ccc(-c2c[nH]c3ncc(-c4ccccc4)cc23)cc1C1CCCC1` (1 nM), the normalised response was 89.6%. `N#CCNC(=O)c1ccc(-c2ccnc(Nc3ccc(N4CCOCC4)cc3)n2)cc1` [Momelotinib] (10 nM) showed a normalised response of 115%. Work on `O=P1(NCCCl)OCCCN1CCCl` (stereo not given) [Ifosfamide] (10 nM) yielded a normalised response of 94.9%. `Oc1nc(-c2ccc(C(F)(F)F)cc2)nc2c1CSCC2` [XAV-939] (10 nM) gave a normalised response of 117%. Work on `O=C1CCC(N2C(=O)c3ccccc3C2=O)C(=O)N1` (stereo not given) [Thalidomide] (10 nM) yielded a normalised response of 98.9%. `Cn1c(CCCC(=O)O)nc2cc(N(CCCl)CCCl)ccc21` [Bendamustine] (10 nM) was tested, and the normalised response was 110%. In the case of `Cc1ccc(C(=O)N(CCCN)[C@@H](c2oc3cc(Cl)ccc3c(=O)c2Cc2ccccc2)C(C)C)cc1` (0.01 nM), the normalised response is reported as 93.1%. `CCC1(c2ccc(N)cc2)CCC(=O)NC1=O` (stereo not given) [Aminoglutethimide] (10 nM) gave a normalised response of 98.7%. Compound `O=C(CCCCCCC(=O)Nc1ccc([C@H]2O[C@@H](CSc3nc(-c4ccccc4)c(-c4ccccc4)o3)C[C@@H](c3ccc(CO)cc3)O2)cc1)NO` [Tubacin] (10 nM) has a normalised response of 95.2%. `NC(=O)Nc1cc(-c2cccc(F)c2)sc1C(=O)N[C@H]1CCCNC1` [AZD7762] (0.1 nM) gave a normalised response of 105%. `CC(=O)Nc1ccc(C(=O)Nc2ccccc2N)cc1` [Tacedinaline] (0.1 nM) gave a normalised response of 105%.

These compounds were tested on Hs578T in the same assay as above. Conditions: incubation time: 72 h.
Outline: as §1
`C[C@]12CC[C@@H]3c4ccc(O)cc4C[C@@H](CCCCCCCCC[S+]([O-])CCCC(F)(F)C(F)(F)F)[C@H]3[C@@H]1CC[C@@H]2O` (stereo not given in full) [Fulvestrant] (100 nM) showed a normalised response of 106%. `CS(=O)(=O)c1ccc(C2=C(c3ccccc3)C(=O)OC2)cc1` [Rofecoxib] (1 nM) showed a normalised response of 104%. `CCCCCCCCCCCCCCCCCCOP(=O)([O-])OC1CC[N+](C)(C)CC1` [Perifosine] (2.5 nM) gave a normalised response of 98.9%. With `O=C(O)c1ccc(-c2c[nH]c3ncc(-c4ccccc4)cc23)cc1C1CCCC1` (1 nM) the normalised response was 98.3%. With `N#CCNC(=O)c1ccc(-c2ccnc(Nc3ccc(N4CCOCC4)cc3)n2)cc1` [Momelotinib] (10 nM) the normalised response was 104%.
